Data from US20240316079A1, “USE OF AKR1C3-ACTIVATED COMPOUND” (OBI PHARMA, INC., priority 2021, published 2024).

Assays:
H460 cells = assay: Cytotoxicity in H460 cells in the absence or presence of AKR1C3 inhibitor 3021; conditions: Homo sapiens, NCI-H460, 2 h, read-out: IC50 (cytotoxicity)
Experimental: Exponentially growing cells were seeded 24 hours before the addition of test compounds. After addition of test compounds, the plates were incubated for the indicated hours at 37° C. in a standard tissue culture incubator. At the end of the experiment, the viable cells were detected using either a CellTiter Glo (CTG) assay kit or AlamarBlue^(28,29). […] For 3021 experiments, cells were pretreated with 3 μM of 3021 for 2 h prior to compound treatment under air. IC50 was calculated as described above.

recombinant human AKR1C3 = biological target: T1, recombinant human AKR1C3 (Homo sapiens, UniProt P42330); assay: Kinetic analysis of AKR1C3 towards various substrates (NADPH absorbance 340 nm); format: biochemical; conditions: substrate of AKR1C3, 25° C., triplicate
T1 construct: purchased Abcam (Cambridge, MA)
T1 sequence (P42330 1-323): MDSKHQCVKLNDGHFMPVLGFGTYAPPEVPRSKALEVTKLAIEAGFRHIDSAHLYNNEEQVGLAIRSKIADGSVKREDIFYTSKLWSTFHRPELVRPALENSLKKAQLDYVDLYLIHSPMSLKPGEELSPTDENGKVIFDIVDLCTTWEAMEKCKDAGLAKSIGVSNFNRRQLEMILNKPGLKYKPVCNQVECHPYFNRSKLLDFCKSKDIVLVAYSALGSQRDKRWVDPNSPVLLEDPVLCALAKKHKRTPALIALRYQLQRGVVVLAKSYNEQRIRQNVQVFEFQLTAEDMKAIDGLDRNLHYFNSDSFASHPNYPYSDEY
Experimental: The reaction was incubated at 25° C. and terminated at various time points by adding acetonitrile and methanol (at a ratio of 9 to 1) and subjected for LC-MS/MS analysis. For enzyme kinetic analysis, the activity was determined with a SpectraMax M2^e spectrophotometer (Molecular Devices, LLC, San Jose, CA) by measuring the decrease in absorbance of the NADPH at 340 nm (E=6270 M^−1 cm^−1). After the initiation of the reaction by addition of substrates, the reactions were monitored at 30 s intervals at 25° C. The non-substrate reaction rate was also monitored as background and its slope was used to determine the initial velocity of the reaction. The kinetic data reported were the average of triplicate measurements.

## C[C@H](OP(=O)(N1CC1)N1CC1)c1ccc([N+](=O)[O-])c(Oc2cccc(C(=O)N(C)C)c2)c1 [Compound 3424, (S)-1-(3-(3-N,N-dimethylaminocarbonyl)phenoxyl-4-mtrophenyl)-1-ethyl-N,N′-bis(ethylene)phosphoramidate]
H460 cells
  IC50: 4 nM
Recombinant human AKR1C3
  Kcat: 0.0107 ± 0.00017 s⁻¹
Recombinant human AKR1C3; read-out: Km
  Km: 12.6 ± 0.28 µM
